Results reported in paper PMC5289470, “The biodistribution of 5-[^18F]fluoropyrazinamide in Mycobacterium tuberculosis-infected mice determined by positron emission tomography” (PLoS ONE, 2017).
Converted amounts (≈) assume the structure as drawn. “Also recorded” adds a separate entry of the source. Like-named read-outs stand apart in the source and are kept apart here.

Experiments:
[1] = tested on: M. tuberculosis; set-up: method as in PMID 23287128; conditions: ref [31]; cited from earlier work
[2] = tested on: M. tuberculosis H37Rv; assay: MIC by agar dilution method; assay type: cell-based; conditions: Mycobacterium tuberculosis, acidic agar pH 5.5 to 6, 30 days
[3] = assay type: in vitro ADME, mouse
Protocol: Test compounds were weighed and dissolved in dimethyl sulfoxide (DMSO) to give 10 mM stock solutions. The stock solutions were diluted to 500 μM with a mixture of methanol and H2O (1:1), and the final concentrations of DMSO and methanol were equal to, or less than, 0.1%. Liver microsome incubations were conducted in duplicate in 96—well plates. Each well contained 40 μL of 0.1 M potassium phosphate buffer (pH 7.4), 2.5 mM MgCl2, 0.625 mg/mL mouse liver microsomes, and test compound (1.25 μM) or positive control. After a 5 min pre-incubation at 37°C, 10 μL of 5.0 mM NADPH in 0.1 M potassium phosphate buffer was added to initiate the enzymatic reaction. The final concentrations were 0.1M potassium phosphate (pH 7.4), 1.0 mM NADPH, 2.0 mM MgCl2, 0.5 mg/mL mouse liver microsomes, and test compound (1.0 μM) or positive control (1.0 μM). Reactions were terminated at various time points (0, 5, 10, 20, 40 min) by adding 100 μL of ice-cold acetonitrile containing internal standard. A parallel incubation was performed using 0.1 M potassium phosphate (pH 7.4) instead of NADPH as the negative control, and the reaction was terminated 40 min after incubation at 37°C. Compound quantitation was performed on a Shimadzu liquid chromatographic system coupled with an API4000 mass spectrometer equipped with TurboIonSpray (ESI) Interface (Applied Biosystems).

[4] = tested on: M. tuberculosis (H37Rv); assay: In vitro accumulation assay, M. tuberculosis; assay type: cell-based; conditions: 120 min of incubation
[5] = tested on: Staphylococcus aureus (ATCC 29213); assay: In vitro accumulation assay, S. aureus; assay type: cell-based; conditions: 120 min of incubation
[6] = PET/CT imaging and ex vivo biodistribution in M. tuberculosis-infected and uninfected mice
[7] = tested on: heat-killed control cultures; assay: Accumulation assay in heat-killed bacteria (negative control); conditions: heat-killed 90°C for 30 min
[8] = tested on: Pseudomonas aeruginosa (ATCC 10145); assay: In vitro accumulation assay, P. aeruginosa; assay type: cell-based; conditions: 120 min of incubation
[9] = mouse, 740 kBq/mL
[10] = tested on: J774A.1 murine macrophage cells; assay: Uptake assay in macrophage cells; assay type: cell-based; conditions: 120 min of incubation
[11] = tested on: Escherichia coli (ATCC 25922); assay: In vitro accumulation assay, E. coli; assay type: cell-based; conditions: 120 min of incubation
[12] = M. tuberculosis H37Rv, read-out: MIC

In the case of NC(=O)c1cnc(Cl)cn1 [5-Cl-PZA, 5-Chloropyrazinamide], the “activity in M. tuberculosis-infected mice” value [1] is given as “lack of activity”.

With NC(=O)c1cnc(F)cn1 [5-F-PZA, 5-Fluoropyrazinamide] the MIC ([2]; H37RV, read-out: concentration up to which bacterial growth was not inhibited (MIC)) was over 2000 µg/mL, the MIC [2, 12] was over 2000 µg/mL and the “fraction of initial concentration metabolized” value ([3]; CD-1, mouse, microsomes, 40 min, 1 μM, pH 7.4) was “approximately 20%”. For the same compound, the “stability in the presence of liver microsomes” value ([3]; mouse) was “not stable”.

For NC(=O)c1cnc([18F])cn1 [5-[^18F]F-PZA, 5-[^18F]F-pyrazinamide], the “In vitro accumulation in M. tuberculosis” value [4] was 0.094%, the “In vitro accumulation in S. aureus” value [5] was 0.123±0.014 and the bone activity ([6]; PET 10 min and 30 min post-injection, post-mortem analysis) was “significant activity in the bones”. The “distribution to organs after intravenous administration” value ([6]; PET imaging) was “rapidly distributed to various organs”, the elimination from organs ([6]; PET imaging) was “rapidly eliminated from all major organs” and the “ex vivo activity in lung (and spleen), infected vs uninfected” value ([6]; direct γ counting after PET imaging) was “higher activity in uninfected lung tissue compared to infected lungs; also recorded: higher activity in uninfected lung and spleen tissues”. For the same compound, the “PET concentration (%ID/cc) in blood, liver, bone and lungs, infected vs uninfected mice” value ([6]; intravenous, throughout 60 min post-injection) was “not significantly different; also recorded: No significant difference”, the “Uptake in heat-killed control cultures” value [7] was “no uptake” and the “In vitro accumulation in P. aeruginosa” value [8] was 0.043±0.026. The “incubation time after which defluorination could be detected” value [9] was 2 min, the “percent of total activity defluorinated” value ([9]; 30 min) was ~ 25% and the percent defluorination ([9]; 60 min) was ~ 40%. For the same compound, the “Accumulation in J774A.1 murine macrophage cells” value [10] was 0.057±0.019 and the “In vitro accumulation in E. coli” value [11] was 0.055±0.005.

Compound NC(=O)c1cnccn1 [PZA, pyrazinamide] has an MIC [2, 12] of 20 µg/mL (≈ 0.162 mM).
